From patent publication US10583128B2, “Treatment of diseases related to alpha subunits of sodium channels, voltage-gated (SCNxA) with small molecules” (CuRNA, Inc., priority 2011, dated 2020) come the findings set out here.

For test [1], the system named is SCN1A mRNA. In words: Upregulation of SCN1A mRNA in adult primary human keratinocytes (real time PCR). It is filed as cell-based. The settings on record: Homo sapiens, Keratinocyte, compound 1 uM, 24-48 h, 18S-normalized vs vehicle (DMSO), average upregulation, read-out: fold increase in SCN1A mRNA levels, Keratinocytes, Avg. The protocol:
(§1) Transfer of a small molecule into a host cell or organism and determination of its effect upon RNA or protein up-regulation or down regulation can be assessed by several methods well known in the art. For example, SCN1A fibroblasts and/or keratinocytes or other cell types as desired are selected and grown for the specific assays herein. One day before the experiment cells are plated at the density of approximately 4×10^4/well into 24 well plates in Growth Media and incubated at 37° C. and 5% CO2 overnight. Next day, the media in the 24 well plates is changed to fresh Growth Media (1 ml/well) and the cells are dosed with small compounds. Compound stocks are prepared in DMSO at a concentration of 1 mM. At the time of the experiment 1 mM stock solutions are diluted to the concentration of 1 uM in Growth Media. One in 1000 dilution of DMSO is used for the control wells. After 24-48 h incubation at 37° C. and 5% CO2 the media is removed and RNA is extracted from the cells using SV Total RNA Isolation System from Promega (cat # Z3105) following the manufacturers' instructions. Six hundred nanograms of purified total RNA is added to the reverse transcription reaction performed using SuperScript VILO cDNA Synthesis Kit from Invitrogen (cat #11754-250) as described in the manufacturer's protocol. The cDNA from this reverse transcription reaction is used to monitor gene expression by real time PCR using ABI Taqman Gene Expression Mix (cat #4369510) and primers/probes designed by ABI (assays Hs00374696_ml, Hs00897350_ml or Hs00897341_ml for human SCN1A). The following PCR cycle is used: 50° C. for 2 min, 95° C. for 10 min, 40 cycles of (95° C. for 15 seconds, 60° C. for 1 min) using StepOne Plus Real Time PCR system (Applied Biosystems). The assay for 18S is manufactured by ABI (cat #4319413E). Fold change in gene expression after treatment with compounds is calculated based on the difference in 18S-normalized dCt values between compound- and vehicle-treated samples.
In Example 2 primary human keratinocytes were treated with small compounds at a final concentration of 1 uM.
Adult primary human keratinocytes from PromoCell (Heidelberg, Germany, cat # C-12003) or LifeLine Cell Technology (Frederick, Md., cat # FC-0025) were grown in Growth Media supplied by the manufacturers at 37° C. and 5% CO2. One day before the experiment cells were plated at the density of approximately 4×10^4/well into 24 well plates in Growth Media and incubated at 37° C. and 5% CO2 overnight. Next day, the media in the 24 well plates was changed to fresh Growth Media (1 ml/well) and the cells were dosed with small compounds. All compounds were available from commercial sources.
(§2) Compound stocks were prepared in DMSO at a concentration of 1 mM. At the time of the experiment 1 mM stock solutions were diluted to the concentration of 1 uM in Growth Media. One in 1000 dilution of DMSO was used for the control wells. After 24-48 h incubation at 37° C. and 5% CO2 the media was removed and RNA was extracted from the cells using SV Total RNA Isolation System from Promega (cat # Z3105) following the manufacturers' instructions. Six hundred nanograms of purified total RNA was added to the reverse transcription reaction performed using SuperScript VILO cDNA Synthesis Kit from Invitrogen (cat #11754-250) as described in the manufacturer's protocol. The cDNA from this reverse transcription reaction was used to monitor gene expression by real time PCR using ABI Taqman Gene Expression Mix (cat #4369510) and primers/probes designed by ABI (assays Hs00374696_ml, Hs00897350_ml or Hs00897341_ml for human SCN1A). Results obtained using all three assays were very similar (data not shown). The following PCR cycle was used: 50° C. for 2 min, 95° C. for 10 min, 40 cycles of (95° C. for 15 seconds, 60° C. for 1 min) using StepOne Plus Real Time PCR system (Applied Biosystems). The assay for 18S was manufactured by ABI (cat #4319413E). […]

Test [2] concerns SCN1A mRNA. Description: Upregulation of SCN1A mRNA in primary human skin fibroblasts carrying a Dravet-associated mutation (real time PCR). It is filed as cell-based. The settings on record: Homo sapiens, Skin fibroblast, compound 1 uM, 24-48 h, 18S-normalized vs vehicle (DMSO), average upregulation, read-out: fold increase in SCN1A mRNA levels, SCN1A fibroblasts, Avg. The method, then:
as §1
In Example 1 primary human skin fibroblasts carrying Dravet-associated SCN1A mutation were treated with small compounds at a final concentration of 1 uM.
as §2, with “Primary human skin fibroblasts carrying Dravet-associated SCN1A mutation introduced into culture by Dr. N. Kenyon (University of Miami) were grown in Growth Media consisting of a-MEM (Gibco, cat: 12561-056)+10% FBS (Mediatech, cat: 35-015 CV)+1% Antimycotic-Antibiotic (Gibco, cat: 15240-062) at 37° C. and 5% CO2. One day before the experiment cells were plated at the density of approximately 4×10^4/well into 24 well plates in Growth Media and incubated at 37° C. and 5% CO2 overnight. Next day, the media in the 24 well plates was changed to fresh Growth Media (I ml/well) and the cells were dosed with small compounds. All compounds were available from commercial sources. Compound” for “Compound”, “shown).” for “shown). The following PCR cycle was used: 50° C. for 2 min, 95° C. for 10 min, 40 cycles of (95° C. for 15 seconds, 60° C. for 1 min) using StepOne Plus Real Time PCR system (Applied Biosystems). The assay for 18S was manufactured by ABI (cat #4319413E).”

On to `CC(=O)N1CCN(c2ccc(OCC3COC(Cn4ccnc4)(c4ccc(Cl)cc4Cl)O3)cc2)CC1` [Ketoconazole, 1-[4-(4-{[(2R,4S)-2-(2,4-Dichlorophenyl)-2-(1H-imidazol-1-ylmethyl)-1,3-dioxolan-4-yl]methoxy}phenyl)piperazin-1-ylethan-1-one], for which the fold induction at 1 µM in the test on SCN1A mRNA [1] was found to be 2.73; in the test with SCN1A mRNA [2], 2.95.
